SMILES | melting point
CC(=O)c1cc(N=C=O)cc(C(C)=O)c1 | 71 °C
O=C(c1ccccc1)[C@]1([N+](=O)[O-])[C@H](c2ccccc2)[C@H]2C[C@H](O)[C@@H]1C2 (relative stereo) | 168 to 169 °C
CN(C)c1ncnc2[nH]c(-c3ccc(Cn4ccnc4)cc3)cc12 | 273 to 275 °C
CC(=O)c1cccc([C@H]2C[C@H]2NC(=O)Nc2ccc(Cl)cn2)c1 (racemic) | 144 to 145 °C
COc1cc(Nc2c(C#N)cnc3cc(/C=C/C(=O)O)sc23)c(Cl)cc1Cl | > 250 °C
CCOC(=O)Cc1ccc(-c2nc(COc3ccc(COc4nn(-c5ccccc5)cc4/C=C/c4csc(COC(=O)c5ccccc5)n4)cc3OC)c(C)o2)cc1 | 116 to 117 °C
CN(C)C(=O)Cc1c(-c2ccc(Cl)cc2)nn2cccnc12 | 174 to 176 °C
CCOC(=O)N(C(C)=O)c1ccc(OCc2nc3ccccc3s2)cc1 | 155 to 160 °C
O=[N+]([O-])N=C1NCCCN1Cc1ccc(Cl)nc1 | 113 to 117 °C
O=C(O)c1cnc(-c2nnn[nH]2)cc1C1CCCCC1 | 278 °C
Cc1nnc(-c2cc3cccc(OC[C@@H](O)CN4CCC(c5ccc6ccccc6c5)CC4)c3o2)o1 | 140 to 142 °C
CC(c1ccccc1N1CCCCC1)C(C(N)=O)c1ccc(C(=O)N2CCOCC2)cc1 (centres undefined) | 148 to 150 °C
Cc1nc(-c2ccc3c(c2)COC(N[C@@H]2CCc4ccccc42)=N3)no1 | 138 °C
CCN(CC)c1ccc(-c2ncccc2S(=O)(=O)Nc2ncc(C)nc2OC)cc1 | 115 to 117 °C
O=C(CCN1CCCCC1)Nc1ccc2[nH]c3ccc(NC(=O)CCN4CCCCC4)cc3c(=O)c2c1 | > 320 °C
CC(C)(C)OC(=O)c1cccc(-c2nc(=O)c3ccccc3s2)n1 | 185 to 186 °C
COC(=O)C(C)(SC)c1ccc(N2C(=O)c3ccccc3C2=O)c(Cl)c1 (centres undefined) | 141 to 142 °C
CC(C)(C)NC(=O)c1nn(-c2ccc(C(C)(C)C)cc2)c2c1C1CCC2C1 (centres undefined) | 148 to 150 °C
CC(O)c1ccc2c(NCc3ccc(NC(=O)c4ccc(F)cc4)cc3)nc(N(C)C)nc2c1 (centres undefined) | 232 °C
O=C(O)Cc1cccc2c(=O)cc(-c3ccccc3F)oc12 | 179 to 181 °C
CC(C)CCOC(=O)c1cc2c([nH]c3ccccc32)c(-c2ccc3c(n2)C(=O)C(NC(=O)CCl)=CC3=O)n1 | 280 to 284 °C
CC(=O)Oc1ccc(C(=O)NNC(=O)c2occ(-c3ccccc3)c2-c2ccccc2)cc1C#N | 131 to 133 °C
CCOC(=O)c1cc(C(=O)c2cccc(S(=O)(=O)F)c2)sc1N | 168 to 170 °C
CC1CCCN1CCCN1CCN(CCN2CCCC2C)C1=C(C#N)C#N (centres undefined) | 69 to 71 °C
COc1ccc2c(c1)-c1ncc(C(=O)O)c(=O)n1CC2 | 237 to 239 °C
CC(C)(C)CCc1ccc(C(=O)NNS(=O)(=O)c2ccccc2)cc1 | 168 to 169 °C
Cc1cc(O)c(C)c2c1NCC2 | 155 to 158 °C
CC(=O)OC1C2C=CC1C1N=NC21 (centres undefined) | 58 °C

SMILES | melting point
COC(=O)C=C(N)CC(=O)OC | 47 to 50 °C
CCOC(=O)COc1c(C)cc(C(O)(C(F)(F)F)C(F)(F)F)cc1C | 99 to 101 °C
Clc1ccc(C2=CCCC2)cn1 | 59 to 60 °C
CCCCc1nc(CC(=O)O)c(-c2ccco2)o1 | 62 to 63 °C
COc1ccc(C(=O)OCc2ccc(C=O)cc2)cc1C(C)(C)C | 75 to 76 °C
CN(CC1=C(C#N)C(c2cccc3nonc23)c2c[nH]nc2N1)C(=O)OC(C)(C)C (centres undefined) | 207 °C
CS(=O)c1ccc(-c2coc3ccc(-c4nnc(N)o4)cc23)cc1 (centres undefined) | 284 to 285 °C
CCOc1cccc2cc(C(=O)C34CC5CC(CC(C5)C3)C4)oc12 | 84 to 86 °C
CCOC(=O)c1nc(N)sc1-c1cn2cc(C)ccc2n1 | 268 to 271 °C
N#CC1Sc2ccccc2N1C(=O)c1ccc(F)cc1 (centres undefined) | 150 to 151 °C
COCOc1ccc(N(C)S(=O)(=O)c2ccc(C)cc2)c([N+](=O)[O-])c1 | 110 to 112 °C
COc1ccc(C(CC(=O)O)c2ccc(OC)cc2)cc1 | 132 to 134 °C
C=Nn1nc(NC)n(OCC)c1=O | 169 °C
Cc1sc2c(Br)c3ccccc3c(-c3ccc(OS(=O)(=O)c4scc(C(=O)O)c4O)c(C4CCCC4)c3)c2c1C | > 230 °C
NS(=O)(=O)c1ccc(-c2c(-c3ccccc3)noc2COCC(F)(F)CO)cc1 | 93 to 94 °C
COc1cc2c(c(O)c1OC)C(Cc1ccc(F)cc1)NCC2 (centres undefined) | 195 to 200 °C
Cc1ncc2c(c1OCC(=O)O)COC2c1ccc(F)cc1 (centres undefined) | 214 °C
CCOC(=O)CNc1ccc2c(c1)CCC2 | 49 °C
COc1ccc(CC(=O)Nc2c(C)c(C)c3c(c2C)C(c2ccc(C(C)C)cc2)C(C)(C)O3)cc1 (centres undefined) | 171 to 173 °C
O=C1CCCCCCCCCCC(=O)O1 | 85 to 89 °C
CC1CN(c2n[nH]c(-c3ccc(Cl)cc3)c2-c2ccncc2)CC(C)N1 (centres undefined) | 236 to 238 °C
C[C@@H]1CSC(=O)[C@@H]2CCCN2C1=O | 98 to 101 °C
COc1cc(Nc2nccc(-c3ccc(C#N)cc3)n2)cc(OC)c1OC | 183 °C
CCOC(=O)C1=C(N)NC(C)=C(C(=O)OC)C1c1ccccc1C#N (centres undefined) | 224 °C
C[C@@H]1CN(C(=O)[C@@](C)(O)C(F)(F)F)[C@@H](C)CN1S(=O)(=O)c1ccc(C(=O)O)cc1 | 194 to 196 °C
CCOC(=O)c1csc(-c2ccc([N+](=O)[O-])cc2)n1 | 156 to 158 °C
CC(C)(C)c1cc(SCCC(=O)NC23CC4CC(CC(C4)C2)C3)cc(C(C)(C)C)c1O | 172 to 174 °C

Now from value to compound:

melting point | SMILES
98 to 99 °C | CNCCC(O)(COc1ccccc1)c1ccccc1 (centres undefined)
189 to 190 °C | CC(C)(CO)CNC(=O)c1nn(C2CCCCO2)cc1NC(=O)c1ccccn1 (centres undefined)
197 to 199 °C | CC(=O)c1cc(S(N)(=O)=O)ccc1O
85 to 86 °C | CC/C(=C\CCC(O)(CC)CC)c1cc(CCc2ccc(CO)c(CO)c2)cs1
116 to 118 °C | c1ccc(-c2nc(CSc3nc4cccc5c4n3CCC5)cs2)cc1
93 to 95 °C | CN(C)c1ccc(CN2C(=O)C3(COc4cc5c(cc43)OCCO5)c3ccccc32)cn1 (centres undefined)
144 to 150 °C | CS(=O)(=O)N1C(=O)[C@H](C2CC2)[C@H]2[C@@H]1CCN2C(=O)OCc1ccccc1 (relative stereo)
143 to 144 °C | O=CNCC1CCCc2cc(NS(=O)(=O)c3cccc(F)c3)ccc21 (centres undefined)
195 to 196 °C | COc1ccc(-c2c(C(=O)O)oc3cc(OCc4ccc(OCc5ccc6ccccc6n5)cc4)cc(O)c3c2=O)cc1
241 °C | CC1(C)CCC(C)(C)c2c(OCc3ccc(F)cc3)cc(C(=O)/C=C/c3ccc(C(=O)O)cc3)cc21
158 to 163 °C | CCOC(=O)c1ncc2[nH]c3ccc(CC)cc3c2c1C
113 to 115 °C | Cn1nc(-c2ccc(Cl)cc2)n(C)c1=S
202 to 204 °C | CN(C)c1ccc(S(=O)(=O)N2CCCC2=O)cc1
100 to 102 °C | CC(C)(C)OC(=O)N1CCC(CCCCN2C(=O)c3ccccc3C2=O)CC1
104 to 106 °C | CCOC(=O)/C=C(/c1ccc(OCC)cc1)c1cc(Cl)cc(Cl)c1
167 to 169 °C | COC(=O)c1ccc(-n2ccc(C)n2)cc1OC
89 to 90 °C | CCOC(=O)c1cccc(-c2ccc(F)c3cc(CO)sc23)c1
188 to 189 °C | O=C(CC1CCCCC1)Nc1ccc2oc3c(c2c1)CCCCC3
142 to 145 °C | O=C(Nc1ccc2c(c1)CCOC2)OCc1ccccc1
> 300 °C | Nc1cc2nc(O)c(O)nc2c2c1CCCC2
140 °C | CC(C)(c1ccc(O)cc1)c1ccc(O)c(C(=O)Oc2ccccc2)c1
207 to 208 °C | CC1(C)CC(c2ccccn2)c2cc(C(=O)O)ccc2O1 (centres undefined)

melting point | SMILES
213 to 216 °C | O=C(Nc1n[nH]c(=S)s1)N[C@@H](Cc1ccccc1)C(=O)N1CCOCC1
120 to 123 °C | C=CCNc1nnc(-c2ccc(F)c(F)c2Nc2ccc(CC)cc2F)o1
188 to 189 °C | Cc1c(SCc2ccco2)ccnc1CSc1nc2ccccc2[nH]1
239 to 241 °C | COc1cc2ncc(C#N)c(Nc3ccc(Oc4ccccc4)cc3)c2cc1OC
264 °C | COc1ccc(C(=O)Sc2ccc(C(=O)O)cc2)cc1C12CC3CC(CC(C3)C1)C2
54 to 57 °C | COC(=O)c1ccccc1-c1cc(-c2ccccn2)on1
264 to 266 °C | COc1cc(OC)c2c(=O)[nH]c(-c3ccc4[nH]nc(CO)c4c3)nc2c1
122 to 124 °C | O=c1c2cccnc2c(-c2cccc(Cl)c2)cn1CC1CCCC1
66 to 68 °C | COc1cc(-c2ccc(Cl)cc2)ccc1COCCc1cccc(NS(=O)(=O)C(F)(F)F)c1
97 °C | CN1CCNC1=C(Br)[N+](=O)[O-]
193 to 194 °C | Cc1oc(-c2ccccc2)nc1CCOc1ccc(CCC2OC(=O)NC2=O)cc1 (centres undefined)
135 to 138 °C | Cc1ccc(Nc2cc(C)nc(-n3nc(C)cc3C)n2)cc1
97 to 99 °C | CCOc1ccc(C2=NN(CCCCCC(=O)O)C(=O)[C@H]3CC=CC[C@@H]23)cc1OCC (relative stereo)
157 °C | CC#CCOc1ccc(S(=O)C(C(=O)NO)c2ccc3ccccc3c2)cc1 (centres undefined)
172 to 174 °C | O=C(O)C1CCc2ccccc2N1C(=O)CSSCC(=O)N1c2ccccc2CCC1C(=O)O (centres undefined)
172 to 173 °C | CC(=O)Nc1cccc(C=C2C(=O)c3ccccc3OC2c2ccccc2)c1 (centres undefined)
66.5 °C | C=C(C)CN1C[C@H](C)Nc2c(cc(Cl)cc2[N+](=O)[O-])C1=O
166 to 167 °C | CCCNc1ncnc2c1ncn2Cc1c(F)cccc1Cl
> 360 °C | O=c1[nH]c2cc(C(F)(F)F)ccc2n1-c1cc(C(F)(F)F)cc([N+](=O)[O-])c1O
130 to 132 °C | CS(=O)(=O)c1ccc(-c2cc(=O)n(CC3CC3)nc2-c2ccc(F)cc2)cc1
186 to 192 °C | Nc1ccc(O)cc1/C=C/C(=O)CC(=O)/C=C/c1ccc(O)cc1
151 to 154 °C | O=c1cc(CO)oc(-c2ccccc2)c1O
